Assay results reported in ChEMBL document CHEMBL3098123, “New inhibitors of cytomegalovirus DNA polymerase” (ACS Med Chem Lett, 2013).

experiment: Inhibition of GST-tagged recombinant human cytomegalovirus DNA polymerase catalytic subunit UL54 expressed in baculovirus infected insect Sf21 cells assessed as incorporation of biotin-tagged dUTP after 30 mins by LANCE TR-FRET assay; set-up: species or system Human betaherpesvirus 5

Compound | IC50 [nM]
COc1cc(N)nc2c1cc(C(=O)NCc1ccc(Cl)cc1)c(=O)n2CC(=O)N(C)CC1(CO)COC1 | 22
CC1(C)CN(C(=O)Cn2c(=O)c(C(=O)NCc3ccc(Cl)cc3)cc3cc(-c4nn[nH]n4)cnc32)C1 | 30
CN(CC(=O)O)c1ccnc2c1cc(C(=O)NCc1ccc(Cl)cc1)c(=O)n2CC(=O)N1CC(C)(C)C1 | 50
